In patent US11560372B2, “Heterocyclic compounds useful as modulators of acetylcholine receptors” (TAKEDA PHARMACEUTICAL COMPANY LIMITED, priority 2017, dated 2023):

Assays:
[1] = biological target: T1, human M1 receptor (hCHRM1) (Homo sapiens, UniProt P11229); test: Measurement of M1 receptor positive allosteric modulator (M1PAM) activity, calcium fluorescence in CHO-K1 cells; format: cell-based; settings: for activity (%) at 10 μM: 10 μM test compound, 100% = acetylcholine final concentration 1 μM, 0% = DMSO; for EC50: inflection point of concentration-dependent curve, in the presence of acetylcholine at EC20 concentration (final 0.8-1.0 nM), read-out: IP value
T1 construct: expressed in transfected cells
T1 sequence (P11229 1-460): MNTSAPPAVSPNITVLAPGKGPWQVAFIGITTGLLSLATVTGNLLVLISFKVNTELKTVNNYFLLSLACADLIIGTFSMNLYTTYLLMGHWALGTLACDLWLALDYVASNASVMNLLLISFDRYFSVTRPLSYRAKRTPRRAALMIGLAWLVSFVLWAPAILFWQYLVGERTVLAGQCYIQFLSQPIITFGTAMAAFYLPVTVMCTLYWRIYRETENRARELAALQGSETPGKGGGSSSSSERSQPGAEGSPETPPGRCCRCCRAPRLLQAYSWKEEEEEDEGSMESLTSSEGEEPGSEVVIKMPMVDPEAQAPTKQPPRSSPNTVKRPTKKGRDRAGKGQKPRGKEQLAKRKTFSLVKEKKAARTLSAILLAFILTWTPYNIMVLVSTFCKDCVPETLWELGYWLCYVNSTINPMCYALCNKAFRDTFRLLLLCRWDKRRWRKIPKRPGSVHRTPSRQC
Summary of the method: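 CHO-K1 cells stably expressing human M1 loaded with Fluo-4 AM, then given compound plus acetylcholine at EC20 (final 0.8-1.0 nM). Calcium fluorescence read for 1 min; activity normalized to 1 μM acetylcholine (100%) and DMSO (0%), with IP taken as inflection point of concentration curve.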

Male SD rats = test: Rat defecation experiment; format: in vivo; settings: mean±standard error
Procedure: Rat Defecation Experiment
Male SD rats (5-6 weeks old) were used after an acclimation period for about 1 week. A test drug (1 mg/kg, 3 mg/kg, or 10 mg/kg) was suspended in 0.5% methylcellulose solution and orally administered at a volume of 5 mL/kg, and the number of feces 2 hr later was counted. Only 0.5% methylcellulose was administered to a solvent administration group.

SMILES | activity (%) at 10 μM [1] | EC50 [1] | number of feces 2 hr later (Male SD rats; 1 mg/kg orally) | number of feces 2 hr later (Male SD rats; 3 mg/kg orally) | number of feces 2 hr later (Male SD rats; 10 mg/kg orally)
Cc1nn(C)cc1-c1ccc(Cc2cc3c(=O)n([C@H]4CCOC[C@@H]4O)cnc3c(C)c2C)cn1 [Example 5, 1,5-anhydro-2,3-dideoxy-3-(6-((6-(1,3-dimethyl-1H-pyrazol-4-yl)pyridin-3-yl)methyl)-7,8-dimethyl-4-oxoquinazolin-3(4H)-yl)-L-threo-pentitol] | 97% | 1.5 nM |  |  | 
Cc1c(Cc2ccc(C(=O)NC[C@H]3CCCO3)c(F)c2)cc2c(=O)n([C@H]3CCOC[C@@H]3O)cnc2c1C [Example 81, 1,5-anhydro-2,3-dideoxy-3-(6-(3-fluoro-4-(((2R)-tetrahydrofuran-2-ylmethyl)carbamoyl)benzyl)-7,8-dimethyl-4-oxoquinazolin-3(4H)-yl)-L-threo-pentitol] | 110% | 3.7 nM | 6.9 ± 1.1 | 7.0 ± 0.8 | 11.5 ± 1.1
COCCNC(=O)c1ccc(Cc2cc3c(=O)n([C@H]4CCOC[C@@H]4O)cnc3c(C)c2C)cc1F [Example 66, 1,5-anhydro-2,3-dideoxy-3-(6-(3-fluoro-4-((2-methoxyethyl)carbamoyl)benzyl)-7,8-dimethyl-4-oxoquinazolin-3(4H)-yl)-L-threo-pentitol] | 106% | 1.8 nM | 9.9 ± 1.0 |  | 
CNC(=O)c1ccc(Cc2cc3c(=O)n([C@H]4CCOC[C@@H]4O)cnc3c(C)c2C)cc1F [Example 3, 1,5-anhydro-2,3-dideoxy-3-(6-(3-fluoro-4-(methylcarbamoyl)benzyl)-7,8-dimethyl-4-oxoquinazolin-3(4H)-yl)-L-threo-pentitol] | 103% | 1 nM | 7.4 ± 0.7 | 7.8 ± 1.4 | 
Cc1c(Cc2ccc(-c3cn(C)nn3)nc2)cc2c(=O)n([C@H]3CCOC[C@@H]3O)cnc2c1C [Example 2, 1,5-anhydro-2,3-dideoxy-3-(7,8-dimethyl-6-((6-(1-methyl-1H-1,2,3-triazol-4-yl)pyridin-3-yl)methyl)-4-oxoquinazolin-3(4H)-yl)-L-threo-pentitol] | 104% | 1.5 nM |  |  | 
Cc1c(Cc2ccc(-c3cnn(C)c3)nc2)cc2c(=O)n([C@H]3CCOC[C@@H]3O)cnc2c1C [Example 6, 1,5-anhydro-2,3-dideoxy-3-(7,8-dimethyl-6-((6-(1-methyl-1H-pyrazol-4-yl)pyridin-3-yl)methyl)-4-oxoquinazolin-3(4H)-yl)-L-threo-pentitol] | 99% | 0.96 nM |  |  | 
CNC(=O)c1ccc(Cc2cc3c(=O)n([C@H]4CCOC[C@@H]4O)nnc3c(Cl)c2C)cc1F [Example 19, 1,5-anhydro-3-(8-chloro-6-(3-fluoro-4-(methylcarbamoyl)benzyl)-7-methyl-4-oxo-1,2,3-benzotriazin-3(4H)-yl)-2,3-dideoxy-L-threo-pentitol] | 103% | 1.6 nM |  |  | 
